From PMC9231089, “Sorafenib Chemosensitization by Caryophyllane Sesquiterpenes in Liver, Biliary, and Pancreatic Cancer Cells: The Role of STAT3/ABC Transporter Axis” (Pharmaceutics, 2022)
Marks after values point to notes of the source that are not given here.

Legend:
[1] = design: method as in PMID 33081075; details: European Food Safety Authority; cited from earlier work
Mz-ChA-1 [2] = test: Combination assay with sorafenib (MTT), Mz-ChA-1; type: cell-based, human;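 on increase of sorafenib cytotoxicity in combination: percent increase of sorafenib cell viability inhibition versus sorafenib alone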
Procedure: (§1) Suitable vehicle controls were also included.
(§2) The type of interaction (synergistic, additive, or antagonistic) among sorafenib and test substances or positive controls was evaluated by measuring the reversal ratio value (RR), combination index (CI), and isobolographic analysis (IB), as previously described.

MRP2 [3] = test: RT-qPCR gene expression in Bx-PC3 cells, MRP2; details: substance in combination with sorafenib, given for MRP1 and MRP2 together
Procedure: (§6) Confluent cells were treated with the test substances, both alone or in combination with the anticancer drug, for 4 h, then washed and incubated for a further 72 h (Figure 1), according to previously published protocols [20]. […] Suitable vehicle controls were also included.
(§7) The results of mRNA abundance for the targeted genes in each sample were normalized on the basis of GAPDH (Bio-Rad, Hercules, CA, USA) mRNA. Data are expressed as 2^−ΔCt, calculated using the CFX Manager software (Bio-Rad).

Pgp [4] = biological target: T1, Pgp (Homo sapiens, UniProt P08183); test: ABC-mediated drug efflux assay, rhodamine 123 accumulation, Bx-PC3 cells; details: 2 h pre-treatment, sesquiterpenes 10 μg/mL, verapamil 1 μg/mL, vs control
T1 sequence (P08183 whole entry): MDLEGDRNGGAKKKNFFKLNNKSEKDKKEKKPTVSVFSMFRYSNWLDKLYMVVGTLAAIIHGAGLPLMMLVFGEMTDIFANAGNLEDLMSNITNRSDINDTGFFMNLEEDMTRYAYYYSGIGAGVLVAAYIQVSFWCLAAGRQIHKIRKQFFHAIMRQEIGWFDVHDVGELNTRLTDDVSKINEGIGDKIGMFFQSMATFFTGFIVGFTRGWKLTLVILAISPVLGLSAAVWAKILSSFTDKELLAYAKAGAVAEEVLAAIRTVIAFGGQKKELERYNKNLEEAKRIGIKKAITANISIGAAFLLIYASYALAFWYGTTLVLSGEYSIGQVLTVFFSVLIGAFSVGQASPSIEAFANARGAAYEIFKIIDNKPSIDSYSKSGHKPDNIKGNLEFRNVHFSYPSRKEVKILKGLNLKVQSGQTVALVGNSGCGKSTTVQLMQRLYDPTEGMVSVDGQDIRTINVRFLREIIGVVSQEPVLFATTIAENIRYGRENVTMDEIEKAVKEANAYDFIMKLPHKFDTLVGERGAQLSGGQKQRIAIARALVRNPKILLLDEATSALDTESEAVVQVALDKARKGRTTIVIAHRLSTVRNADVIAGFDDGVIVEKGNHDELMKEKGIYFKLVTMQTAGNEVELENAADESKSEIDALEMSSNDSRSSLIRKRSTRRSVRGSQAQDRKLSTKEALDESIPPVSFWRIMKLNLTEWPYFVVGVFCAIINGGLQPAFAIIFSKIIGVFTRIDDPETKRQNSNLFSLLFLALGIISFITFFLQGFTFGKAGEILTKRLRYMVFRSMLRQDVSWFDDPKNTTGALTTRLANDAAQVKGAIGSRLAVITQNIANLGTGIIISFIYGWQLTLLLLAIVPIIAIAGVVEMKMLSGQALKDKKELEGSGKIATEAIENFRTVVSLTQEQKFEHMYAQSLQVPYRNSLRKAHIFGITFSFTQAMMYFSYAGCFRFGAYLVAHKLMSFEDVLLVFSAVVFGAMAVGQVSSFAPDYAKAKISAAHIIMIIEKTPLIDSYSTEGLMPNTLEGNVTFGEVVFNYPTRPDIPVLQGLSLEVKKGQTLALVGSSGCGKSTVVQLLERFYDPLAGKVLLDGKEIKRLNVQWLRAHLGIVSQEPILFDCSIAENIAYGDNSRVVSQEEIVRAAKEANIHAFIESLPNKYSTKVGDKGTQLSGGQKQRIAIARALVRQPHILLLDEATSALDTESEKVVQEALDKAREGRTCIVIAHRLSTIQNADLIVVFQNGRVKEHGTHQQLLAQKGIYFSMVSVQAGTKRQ
Procedure: (§3) The ability of β-caryophyllene and β-caryophyllene oxide to inhibit the activity of Pgp and MRP1/2 transporters was measured according to previously published methods with slight modifications. […] Fluorescence was measured at excitation and emission wavelengths of 485 nm and 535 nm for both probes, using a Cytation 1 Cell Imaging Multimode Reader (Biotech, Santa Clara, CA, USA). Results were normalized to viable cells and expressed as percentage of the negative control.

[5] = design: method as in PMID 30659321; details: previous in vivo study; cited from earlier work
phospho(Tyr705)-STAT3 = test: Western blotting of STAT3 phosphorylation in Bx-PC3 cells; type: cell-based, human
Procedure: as §1
Confluent cells were seeded in 6-well plates (5 × 10^5 cells/well), treated as described above, then harvested by centrifugation and washed in PBS. After lysis with a suitable buffer, the Western blotting analysis was carried out, according to previously published methods. […] The levels of phospho(Tyr705)-STAT3 were normalized against total STAT3 ones.

Pgp [6] = test: Immunofluorescence analysis in Bx-PC3 cells, Pgp; type: cell-based, human
Procedure: as §1
(§4) The analysis was performed according to previously published methods. Confluent cells were seeded in 24-well plates (2 × 10^4 cells/well), allowed to adhere overnight, then treated as described above. After treatment, cells were fixed in pure methanol and washed with 4% bovine serum albumin (BSA) and PBS + Tween 20 (PBS-T) for 1 h. […] The expression and localization of Pgp, MRP1, and MRP2 pumps into cells were analyzed by using a Cytation 1 Cell Imaging Multimode Reader (Biotech, USA).

[7] = system: noncancerous H69 cholangiocytes; test: Combination assay with sorafenib (MTT), tolerability in H69; type: cell-based, human; details: sesquiterpene 10 μg/mL combined with sorafenib (protective effect at sorafenib 10 μg/mL)
Procedure: as §1, §2

Bx-PC3 cells = test: Wound healing assay (cell migration); type: cell-based, human
Procedure: To evaluate the effect of caryophyllane sesquiterpenes, both alone and in combination with sorafenib, on the cell migration rate, the wound healing assay was performed. Bx-PC3 cells were seeded in 24-well plate at a density of 2.5 × 10^5 cells/well. After 24 h, the wound was created by scratching the well bottom with a 100 μL pipette tip, then the cells were treated under the scheduled conditions and images were captured at 0, 4, and 72 h using a Cytation 1 Cell Imaging Multi-Mode Reader. […] Results were expressed as wound area percentage with respect to that of the same well at zero time. The positive controls were also included.

MDR1 = test: RT-qPCR gene expression in Bx-PC3 cells, MDR1
Procedure: as §6, §7

MRP1 [8] = test: RT-qPCR gene expression in Bx-PC3 cells, MRP1; type: cell-based, human; details: substance in combination with sorafenib, given for MRP1 and MRP2 together
Excerpt: as §1

Pgp [9] = biological target: T1, Pgp; test: ABC-mediated drug efflux assay, rhodamine 123 accumulation, Mz-ChA-1 cells; details: 2 h pre-treatment, sesquiterpenes 10 μg/mL, verapamil 1 μg/mL, vs control
Procedure: as §3

HepG2 [10] = test: MTT cytotoxicity assay, substances alone, HepG2; type: cell-based, human; details: HepG2
Procedure: as §1
(§5) The effect of the treatments on cell viability was measured by the MTT assay as previously described. A higher than 30% reduction of cell viability was considered as a significant cytotoxic effect.

MRP1/2 [11] = test: ABC-mediated drug efflux assay, calcein-AM accumulation, Bx-PC3 cells; type: cell-based, human; details: 2 h pre-treatment, sesquiterpenes 10 μg/mL, MK571 1 μg/mL, vs control
Bx-PC3 [12] = test: Combination assay with sorafenib (MTT), Bx-PC3; type: cell-based, human;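 on increase of sorafenib cytotoxicity in combination: percent increase of sorafenib cell viability inhibition versus sorafenib alone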
Procedure: as §1, §2

HepG2 [13] = test: Combination assay with sorafenib (MTT), HepG2; type: cell-based, human; details: for increase of sorafenib cytotoxicity in combination: verapamil/MK571 1 µg/mL or sesquiterpenes 10 µg/mL;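 on increase of sorafenib cytotoxicity in combination: percent increase of sorafenib cell viability inhibition versus sorafenib alone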
Procedure: as §1, §2

Mz-ChA-1 [14] = test: MTT cytotoxicity assay, substances alone, Mz-ChA-1; type: cell-based, human; details: Mz-ChA-1
Procedure: as §1, §5

[15] = system: noncancerous H69 cholangiocytes; test: MTT cytotoxicity assay (tolerability), substances alone, H69; type: cell-based, human; details: H69 noncancerous cholangiocytes; substance alone; 4 h exposure + 72 h recovery
Procedure: as §1, §5

MRP1 [16] = test: Immunofluorescence analysis in Bx-PC3 cells, MRP1; type: cell-based, human; details: substance 10 µg/mL in combination with sorafenib 10 µg/mL
Procedure: as §1, §4

Pgp [17] = biological target: T1, Pgp; test: ABC-mediated drug efflux assay, rhodamine 123 accumulation, HepG2 cells; details: 2 h pre-treatment, sesquiterpenes 10 μg/mL, verapamil 1 μg/mL, vs control
Procedure: as §3

MRP2 [18] = test: Immunofluorescence analysis in Bx-PC3 cells, MRP2; type: cell-based, human
Procedure: as §1, §4

Bx-PC3 [19] = test: MTT cytotoxicity assay, substances alone, Bx-PC3; type: cell-based, human
Procedure: as §1, §5

MRP1/2 [20] = test: ABC-mediated drug efflux assay, calcein-AM accumulation, Mz-ChA-1 cells; type: cell-based, human; details: 2 h pre-treatment, sesquiterpenes 10 μg/mL, vs control
MRP1/2 [21] = test: ABC-mediated drug efflux assay, calcein-AM accumulation, HepG2 cells; type: cell-based, human; details: 2 h pre-treatment, sesquiterpenes 10 μg/mL, vs control
[22] = substance in combination with sorafenib 10 μg/mL
[23] = substance alone, 4 h exposure + 72 h recovery

For `C=C1CC[C@H]2O[C@]2(C)CC[C@@H]2[C@@H]1CC2(C)C` [β-Caryophyllene oxide, β-caryophyllene oxide], the “considered safe up to (approved as flavoring)” value [1] is listed as ≤ 109 mg/kg/die, the “reduction of sorafenib IC50 in the presence of the substance” value (shortened to “reduction of sorafenib IC50”) (Mz-ChA-1 [2]) is listed as ~1.5 fold and the “combination index (CI) with sorafenib” value (Mz-ChA-1 [2]; CI lower than 1 = synergistic) is listed as 0.76. For the same compound, the “increase of sorafenib cytotoxicity in combination” value (shortened to “increase of sorafenib cytotoxicity”) (Mz-ChA-1 [2]; sorafenib 10 µg/mL, verapamil/MK571 1 µg/mL or sesquiterpenes 10 µg/mL) was 14%, the “increase of sorafenib cytotoxicity” value (Mz-ChA-1 [2]; sorafenib 50 µg/mL, sesquiterpenes 10 µg/mL) was 13% and the “reduction of MRP2 gene expression” value (MRP2 [3]) was 3 fold. The “increase of rhodamine 123 accumulation” value (Pgp [4]) was “approximately 2.7 fold”, the “safety in vivo up to” value [5] was ≤ 100 mg/kg and the “increase of STAT3 phosphorylation at tyrosine 705” value (phospho(Tyr705)-STAT3; substance alone, sorafenib and sesquiterpenes 10 μg/mL, verapamil/MK571 1 μg/mL, normalized to total STAT3) was “approximately 3 fold”. For the same compound, the “reduction of phospho(Tyr705)-STAT3 with respect to sorafenib” value (phospho(Tyr705)-STAT3; [22]) was 2.6 fold, the “effect on Pgp expression (immunofluorescence)” value (Pgp [6]; substance alone, sorafenib and sesquiterpenes 10 µg/mL, verapamil 1 µg/mL) was “did not affect” and the “reduction of Pgp expression compared to control” value (Pgp [6]; [22]) was ~1.8 fold. The “effect on sorafenib cytotoxicity in noncancerous cells” value [7] was “null effect”, the “wound area / cell migration after 72 h” value (Bx-PC3 cells; substance alone, sesquiterpenes 10 µg/mL, verapamil/MK571 1 µg/mL) was “blocked cell migration” and the “increase of wound area” value (Bx-PC3 cells; substance in combination with sorafenib 10 µg/mL, reference and time not stated) was ~5 fold. For the same compound, the “increase of MDR1 gene expression with respect to control” value (MDR1; [23]) was 4.7 fold, the “downregulation of MDR1 gene with respect to sorafenib alone” value (MDR1; substance in combination with sorafenib) was 1.3 fold and the “reduction of MRP1 gene expression” value (MRP1 [8]) was 3 fold. The “increase of rhodamine 123 accumulation” value (Pgp [9]) was ~1.2 fold, the “IC50 higher than that of sorafenib” value (HepG2 [10]) was 1.7 fold and the “IC50 (CL)” value (HepG2 [10]; substance alone, 4 h exposure + 72 h recovery, CL confidence limits) was 78.7 (76.8–80.5) *** µg/mL. The “increase of calcein-AM accumulation” value (MRP1/2 [11]) was ~3.0 fold, the “reduction of sorafenib IC50” value (Bx-PC3 [12]) was 9 fold and the “combination index (CI) with sorafenib” value (Bx-PC3 [12]; CI lower than 1 = synergistic) was 0.26. For the same compound, the “increase of sorafenib cytotoxicity” value (Bx-PC3 [12]; sesquiterpenes 10 µg/mL, sorafenib concentration not stated (Figure 3F)) was 64%, the “reduction of sorafenib IC50” value (HepG2 [13]) was ~6 fold and the “combination index (CI) with sorafenib” value (HepG2 [13]; CI lower than 1 = synergistic) was 0.29. For the same compound, the “increase of sorafenib cytotoxicity” value (HepG2 [13]; sorafenib 1 µg/mL) was 20%, the “increase of sorafenib cytotoxicity” value (HepG2 [13]; sorafenib 10 µg/mL) was ~44% and the “IC50 higher than that of sorafenib” value (Mz-ChA-1 [14]) was 1.2 fold. For the same compound, the “inhibition of cell viability” value (Mz-ChA-1 [14]; 50 µg/mL) was 16%, the “inhibition of cell viability” value (Mz-ChA-1 [14]; 250 µg/mL) was 90% and the “IC50 (CL)” value (Mz-ChA-1 [14]; [23]) was 94.5 (90.1–99.1) ** µg/mL. For the same compound, the “IC50 (CL)” value [15] was 99.7 (93.1–106.9) *** µg/mL, the “reduction of MRP1 expression with respect to sorafenib” value (MRP1 [16]) was 1.5 fold and the “increase of rhodamine 123 accumulation” value (Pgp [17]) was ~2.5 fold. For the same compound, the “reduction of MRP2 expression with respect to sorafenib” value (MRP2 [18]; substance 10 µg/mL in combination with sorafenib 10 µg/mL) was 1.6 fold, the “increase of MRP2 expression (immunofluorescence)” value (MRP2 [18]; substance alone, 10 µg/mL) was 1.2 fold and the “IC50 higher than that of sorafenib” value (Bx-PC3 [19]) was 2.1 fold. For the same compound, the “inhibition of cell viability” value (Bx-PC3 [19]; 50 µg/mL) was 30%, the “inhibition of cell viability” value (Bx-PC3 [19]; 250 µg/mL) was 95% and the “IC50 (CL)” value (Bx-PC3 [19]; [23]) was 65.3 (62.1–68.7) *** µg/mL. For the same compound, the “increase of calcein-AM accumulation” value (MRP1/2 [20]) was ~1.4 fold and the “increase of calcein-AM accumulation” value (MRP1/2 [21]) was “approximately 1.3 fold”.
